What was measured:
Experiment in all cases: relative viability (nuclei count vs DMSO), 5 days (fraction); higher = more cells survive
Afatinib + Bortezomib = compound: CN(C)C/C=C/C(=O)Nc1cc2c(Nc3ccc(F)c(Cl)c3)ncnc2cc1O[C@H]1CCOC1 [Afatinib] + CC(C)C[C@H](NC(=O)[C@H](Cc1ccccc1)NC(=O)c1cnccn1)B(O)O [Bortezomib] (partner 0.002 µM)
In short: (§1)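 Relative viability is defined as nuclei in treated wells over nuclei in vehicle wells. Duplicate plates were run and medians reported. Lung cancer cell lines in 1536-well plates were dosed by pin tool one day after seeding, with one drug or with a fixed anchor-drug dose plus five library-drug doses (not always all listed) in √10 steps, and nuclei were counted after 5 days.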

Afatinib + AZD7762 = compound: CN(C)C/C=C/C(=O)Nc1cc2c(Nc3ccc(F)c(Cl)c3)ncnc2cc1O[C@H]1CCOC1 [Afatinib] + NC(=O)Nc1cc(-c2cccc(F)c2)sc1C(=O)N[C@H]1CCCNC1 [AZD7762] (partner 0.2 µM)
In short: as §1

Afatinib + Tozasertib = compound: CN(C)C/C=C/C(=O)Nc1cc2c(Nc3ccc(F)c(Cl)c3)ncnc2cc1O[C@H]1CCOC1 [Afatinib] + Cc1cc(Nc2cc(N3CCN(C)CC3)nc(Sc3ccc(NC(=O)C4CC4)cc3)n2)n[nH]1 [Tozasertib] (partner 0.1 µM)
In short: as §1

Afatinib + Decitabine = compound: CN(C)C/C=C/C(=O)Nc1cc2c(Nc3ccc(F)c(Cl)c3)ncnc2cc1O[C@H]1CCOC1 [Afatinib] + Nc1ncn([C@H]2C[C@H](O)[C@@H](CO)O2)c(=O)n1 [Decitabine] (partner 2 µM)
In short: as §1

Cell Line: H3255
- relative viability (Afatinib + Bortezomib; first compound 0.005 µM): 0.252
- relative viability (Afatinib + Bortezomib; first compound 0.01581 µM): 0.194
- relative viability (Afatinib + Bortezomib; first compound 0.05 µM): 0.221
- relative viability (Afatinib + Bortezomib; first compound 0.1581 µM): 0.184
- relative viability (Afatinib + Bortezomib; first compound 0.5 µM): 0.231
- relative viability (Afatinib + AZD7762; first compound 0.005 µM): 0.405
- relative viability (Afatinib + AZD7762; first compound 0.01581 µM): 0.284
- relative viability (Afatinib + AZD7762; first compound 0.05 µM): 0.278
- relative viability (Afatinib + AZD7762; first compound 0.1581 µM): 0.259
- relative viability (Afatinib + AZD7762; first compound 0.5 µM): 0.287
- relative viability (Afatinib + Tozasertib; first compound 0.005 µM): 0.315
- relative viability (Afatinib + Tozasertib; first compound 0.01581 µM): 0.204
- relative viability (Afatinib + Tozasertib; first compound 0.05 µM): 0.222
- relative viability (Afatinib + Tozasertib; first compound 0.1581 µM): 0.168
- relative viability (Afatinib + Tozasertib; first compound 0.5 µM): 0.195
- relative viability (Afatinib + Decitabine; first compound 0.005 µM): 0.256
- relative viability (Afatinib + Decitabine; first compound 0.01581 µM): 0.167
- relative viability (Afatinib + Decitabine; first compound 0.05 µM): 0.179
- relative viability (Afatinib + Decitabine; first compound 0.1581 µM): 0.189
- relative viability (Afatinib + Decitabine; first compound 0.5 µM): 0.172

Cell Line: NCI-H650
- relative viability (Afatinib + Bortezomib; first compound 0.005 µM): 1.07
- relative viability (Afatinib + Bortezomib; first compound 0.01581 µM): 0.802
- relative viability (Afatinib + Bortezomib; first compound 0.05 µM): 0.957
- relative viability (Afatinib + Bortezomib; first compound 0.1581 µM): 0.949
- relative viability (Afatinib + Bortezomib; first compound 0.5 µM): 0.597
- relative viability (Afatinib + AZD7762; first compound 0.005 µM): 0.832
- relative viability (Afatinib + AZD7762; first compound 0.01581 µM): 0.886
- relative viability (Afatinib + AZD7762; first compound 0.05 µM): 1.03
- relative viability (Afatinib + AZD7762; first compound 0.1581 µM): 1.04
- relative viability (Afatinib + AZD7762; first compound 0.5 µM): 0.904
- relative viability (Afatinib + Tozasertib; first compound 0.005 µM): 0.846
- relative viability (Afatinib + Tozasertib; first compound 0.01581 µM): 0.735
- relative viability (Afatinib + Tozasertib; first compound 0.05 µM): 0.782
- relative viability (Afatinib + Tozasertib; first compound 0.1581 µM): 0.721
- relative viability (Afatinib + Tozasertib; first compound 0.5 µM): 0.683
- relative viability (Afatinib + Decitabine; first compound 0.005 µM): 0.321
- relative viability (Afatinib + Decitabine; first compound 0.01581 µM): 0.323
- relative viability (Afatinib + Decitabine; first compound 0.05 µM): 0.334
- relative viability (Afatinib + Decitabine; first compound 0.1581 µM): 0.334
- relative viability (Afatinib + Decitabine; first compound 0.5 µM): 0.308

Cell Line: LCLC-103H
- relative viability (Afatinib + Bortezomib; first compound 0.005 µM): 1.01
- relative viability (Afatinib + Bortezomib; first compound 0.01581 µM): 1.09
- relative viability (Afatinib + Bortezomib; first compound 0.05 µM): 1.05
- relative viability (Afatinib + Bortezomib; first compound 0.1581 µM): 0.929
- relative viability (Afatinib + Bortezomib; first compound 0.5 µM): 1.12
- relative viability (Afatinib + AZD7762; first compound 0.005 µM): 0.758
- relative viability (Afatinib + AZD7762; first compound 0.01581 µM): 0.814
- relative viability (Afatinib + AZD7762; first compound 0.05 µM): 0.758
- relative viability (Afatinib + AZD7762; first compound 0.1581 µM): 0.781
- relative viability (Afatinib + AZD7762; first compound 0.5 µM): 0.78
- relative viability (Afatinib + Tozasertib; first compound 0.005 µM): 0.425
- relative viability (Afatinib + Tozasertib; first compound 0.01581 µM): 0.508
- relative viability (Afatinib + Tozasertib; first compound 0.05 µM): 0.441
- relative viability (Afatinib + Tozasertib; first compound 0.1581 µM): 0.516
- relative viability (Afatinib + Tozasertib; first compound 0.5 µM): 0.49
- relative viability (Afatinib + Decitabine; first compound 0.005 µM): 0.714
- relative viability (Afatinib + Decitabine; first compound 0.01581 µM): 0.774
- relative viability (Afatinib + Decitabine; first compound 0.05 µM): 0.727
- relative viability (Afatinib + Decitabine; first compound 0.1581 µM): 0.704
- relative viability (Afatinib + Decitabine; first compound 0.5 µM): 0.718

Cell Line: LOU-NH91
- relative viability (Afatinib + Bortezomib; first compound 0.005 µM): 0.465
- relative viability (Afatinib + Bortezomib; first compound 0.01581 µM): 0.416
- relative viability (Afatinib + Bortezomib; first compound 0.05 µM): 0.48
- relative viability (Afatinib + Bortezomib; first compound 0.1581 µM): 0.519
- relative viability (Afatinib + Bortezomib; first compound 0.5 µM): 0.502
- relative viability (Afatinib + AZD7762; first compound 0.005 µM): 0.707
- relative viability (Afatinib + AZD7762; first compound 0.01581 µM): 0.704
- relative viability (Afatinib + AZD7762; first compound 0.05 µM): 0.76
- relative viability (Afatinib + AZD7762; first compound 0.1581 µM): 0.679
- relative viability (Afatinib + AZD7762; first compound 0.5 µM): 0.637
- relative viability (Afatinib + Tozasertib; first compound 0.005 µM): 0.475
- relative viability (Afatinib + Tozasertib; first compound 0.01581 µM): 0.444
- relative viability (Afatinib + Tozasertib; first compound 0.05 µM): 0.527
- relative viability (Afatinib + Tozasertib; first compound 0.1581 µM): 0.51
- relative viability (Afatinib + Tozasertib; first compound 0.5 µM): 0.479
- relative viability (Afatinib + Decitabine; first compound 0.005 µM): 0.617
- relative viability (Afatinib + Decitabine; first compound 0.01581 µM): 0.672
- relative viability (Afatinib + Decitabine; first compound 0.05 µM): 0.699
- relative viability (Afatinib + Decitabine; first compound 0.1581 µM): 0.643
- relative viability (Afatinib + Decitabine; first compound 0.5 µM): 0.697

Cell Line: NCI-H3122
- relative viability (Afatinib + Bortezomib; first compound 0.005 µM): 1.05
- relative viability (Afatinib + Bortezomib; first compound 0.01581 µM): 1.02
- relative viability (Afatinib + Bortezomib; first compound 0.05 µM): 1.06
- relative viability (Afatinib + Bortezomib; first compound 0.1581 µM): 0.967
- relative viability (Afatinib + Bortezomib; first compound 0.5 µM): 1.04
- relative viability (Afatinib + AZD7762; first compound 0.005 µM): 1.07
- relative viability (Afatinib + AZD7762; first compound 0.01581 µM): 0.985
- relative viability (Afatinib + AZD7762; first compound 0.05 µM): 0.991
- relative viability (Afatinib + AZD7762; first compound 0.1581 µM): 0.883
- relative viability (Afatinib + AZD7762; first compound 0.5 µM): 1.05
- relative viability (Afatinib + Tozasertib; first compound 0.005 µM): 0.452
- relative viability (Afatinib + Tozasertib; first compound 0.01581 µM): 0.504
- relative viability (Afatinib + Tozasertib; first compound 0.05 µM): 0.394
- relative viability (Afatinib + Tozasertib; first compound 0.1581 µM): 0.327
- relative viability (Afatinib + Tozasertib; first compound 0.5 µM): 0.459
- relative viability (Afatinib + Decitabine; first compound 0.005 µM): 0.38
- relative viability (Afatinib + Decitabine; first compound 0.01581 µM): 0.439
- relative viability (Afatinib + Decitabine; first compound 0.05 µM): 0.424
- relative viability (Afatinib + Decitabine; first compound 0.1581 µM): 0.433
- relative viability (Afatinib + Decitabine; first compound 0.5 µM): 0.418

Cell Line: PC-3 [JPC-3]
- relative viability (Afatinib + Bortezomib; first compound 0.005 µM): 0.516
- relative viability (Afatinib + Bortezomib; first compound 0.01581 µM): 0.351
- relative viability (Afatinib + Bortezomib; first compound 0.05 µM): 0.315
- relative viability (Afatinib + Bortezomib; first compound 0.1581 µM): 0.406
- relative viability (Afatinib + Bortezomib; first compound 0.5 µM): 0.303
- relative viability (Afatinib + AZD7762; first compound 0.005 µM): 0.52
- relative viability (Afatinib + AZD7762; first compound 0.01581 µM): 0.413
- relative viability (Afatinib + AZD7762; first compound 0.05 µM): 0.307
- relative viability (Afatinib + AZD7762; first compound 0.1581 µM): 0.353
- relative viability (Afatinib + AZD7762; first compound 0.5 µM): 0.422
- relative viability (Afatinib + Tozasertib; first compound 0.005 µM): 0.443
- relative viability (Afatinib + Tozasertib; first compound 0.01581 µM): 0.416
- relative viability (Afatinib + Tozasertib; first compound 0.05 µM): 0.428
- relative viability (Afatinib + Tozasertib; first compound 0.1581 µM): 0.291
- relative viability (Afatinib + Tozasertib; first compound 0.5 µM): 0.37
- relative viability (Afatinib + Decitabine; first compound 0.005 µM): 0.564
- relative viability (Afatinib + Decitabine; first compound 0.01581 µM): 0.52
- relative viability (Afatinib + Decitabine; first compound 0.05 µM): 0.553
- relative viability (Afatinib + Decitabine; first compound 0.1581 µM): 0.449
- relative viability (Afatinib + Decitabine; first compound 0.5 µM): 0.492

Cell Line: NCI-H1651
- relative viability (Afatinib + Bortezomib; first compound 0.005 µM): 1.08
- relative viability (Afatinib + Bortezomib; first compound 0.01581 µM): 0.912
- relative viability (Afatinib + Bortezomib; first compound 0.05 µM): 0.926
- relative viability (Afatinib + Bortezomib; first compound 0.1581 µM): 1.02
- relative viability (Afatinib + Bortezomib; first compound 0.5 µM): 0.884
- relative viability (Afatinib + AZD7762; first compound 0.005 µM): 0.396
- relative viability (Afatinib + AZD7762; first compound 0.01581 µM): 0.361
- relative viability (Afatinib + AZD7762; first compound 0.05 µM): 0.424
- relative viability (Afatinib + AZD7762; first compound 0.1581 µM): 0.421
- relative viability (Afatinib + AZD7762; first compound 0.5 µM): 0.451
- relative viability (Afatinib + Tozasertib; first compound 0.005 µM): 0.718
- relative viability (Afatinib + Tozasertib; first compound 0.01581 µM): 0.748
- relative viability (Afatinib + Tozasertib; first compound 0.05 µM): 0.727
- relative viability (Afatinib + Tozasertib; first compound 0.1581 µM): 0.591
- relative viability (Afatinib + Tozasertib; first compound 0.5 µM): 0.609
- relative viability (Afatinib + Decitabine; first compound 0.005 µM): 0.558
- relative viability (Afatinib + Decitabine; first compound 0.01581 µM): 0.57
- relative viability (Afatinib + Decitabine; first compound 0.05 µM): 0.6
- relative viability (Afatinib + Decitabine; first compound 0.1581 µM): 0.576
- relative viability (Afatinib + Decitabine; first compound 0.5 µM): 0.585

Cell Line: NCI-H2087
- relative viability (Afatinib + Bortezomib; first compound 0.005 µM): 1.02
- relative viability (Afatinib + Bortezomib; first compound 0.01581 µM): 0.756
- relative viability (Afatinib + Bortezomib; first compound 0.05 µM): 0.867
- relative viability (Afatinib + Bortezomib; first compound 0.1581 µM): 0.8
- relative viability (Afatinib + Bortezomib; first compound 0.5 µM): 0.795
- relative viability (Afatinib + AZD7762; first compound 0.005 µM): 1.15
- relative viability (Afatinib + AZD7762; first compound 0.01581 µM): 1.45
- relative viability (Afatinib + AZD7762; first compound 0.05 µM): 1.27
- relative viability (Afatinib + AZD7762; first compound 0.1581 µM): 1.31
- relative viability (Afatinib + AZD7762; first compound 0.5 µM): 1.21
- relative viability (Afatinib + Tozasertib; first compound 0.005 µM): 0.232
- relative viability (Afatinib + Tozasertib; first compound 0.01581 µM): 0.25
- relative viability (Afatinib + Tozasertib; first compound 0.05 µM): 0.267
- relative viability (Afatinib + Tozasertib; first compound 0.1581 µM): 0.229
- relative viability (Afatinib + Tozasertib; first compound 0.5 µM): 0.202
- relative viability (Afatinib + Decitabine; first compound 0.005 µM): 0.336
- relative viability (Afatinib + Decitabine; first compound 0.01581 µM): 0.227
- relative viability (Afatinib + Decitabine; first compound 0.05 µM): 0.262
- relative viability (Afatinib + Decitabine; first compound 0.1581 µM): 0.209
- relative viability (Afatinib + Decitabine; first compound 0.5 µM): 0.25

From the supplement of paper PMC10307832
